Measurements taken from patent US20260130901A1, “CGRP RECEPTOR ANTAGONIST FOR THE TREATMENT OF MIGRAINE” (ALLERGAN PHARMACEUTICALS INTERNATIONAL LIMITED, priority 2022, published 2026).

Legend:
[1] = test system: participants with migraine (qualifying prodrome events); experiment: Phase 3 crossover study: activity limitation at 24 hours; format: in vivo, human; conditions: 100 mg in prodrome, at 24 hours post-dose
Description: (§1) A phase 3, multicenter, randomized, double-blind, placebo-controlled, crossover study was carried out to evaluate the efficacy, safety, and tolerability of oral ubrogepant in the acute treatment of migraine when administered during the prodrome. The study evaluated whether treatment during the initial phase of a migraine attack (i.e., the prodrome or premonitory phase) prior to the onset of headache, can attenuate the severity of the headache phase and reduce disability.
(§2) Eligible participants were randomized (1:1) to treatment sequences A or B in this crossover study. Participants randomized to Treatment Sequence A received placebo to treat their first qualifying prodrome event and ubrogepant 100 mg to treat their second qualifying prodrome event. For those randomized to Treatment Sequence B, they received the reverse: ubrogepant 100 mg to treat their first qualifying prodrome event and placebo to treat their second qualifying prodrome event.

[2] = test system: participants with migraine (qualifying prodrome events); experiment: Phase 3 crossover study: absence of headache after treatment during the prodrome; format: in vivo, human
Description: as §1
Eligible participants were able to treat two qualifying prodrome events, defined as a migraine attack with prodromal symptoms in which the participant was confident a headache would follow within 1-6 hours.
The primary endpoint was absence of moderate or severe intensity headache within 24 hours post-dose. Secondary endpoints were absence of moderate/severe intensity headache within 48 hours, ability to function normally over 24 hours, and absence of headache of any intensity within 24 hours post-dose.
The trial enrolled adults with 2-8 migraine attacks per month who stated that they could identify migraine attacks with prodromal symptoms reliably followed by headache. Using an e-diary, participants reported qualifying events, defined as a migraine attack with prodromal symptoms in which the participant was confident a headache would follow within 1-6 hours.
as §2
The primary efficacy endpoint was the absence of a headache of moderate/severe intensity within 24 hours after taking double-blind study intervention during the prodrome. The secondary efficacy endpoints were the absence of a headache of moderate or severe intensity within 48 hours, ability to function normally over 24 hours, and absence of a headache of any intensity within 24 hours after taking double blind study interventions during the prodrome.
The overall study design is illustrated in FIG. 1. […] After meeting eligibility criteria, randomized participants were to treat two qualifying prodrome events with study intervention during the double-blind treatment period (between Visit 2 and Visit 4) (up to 60 days), separated by a clinic visit (visit 3) to ensure a minimum 7-day washout period. A post-treatment visit (visit 4) followed four days after the last treatment was taken.
To be eligible for study participation, participants must be 18 to 75 years of age (inclusive) at Visit 1, have at least a 1-year history of migraine with or without aura consistent with diagnosis according to the ICHD-3 (2018), and experience 2 to 8 migraine attacks with moderate to severe headache per month by history in each of the 3 months prior to screening. At the screening visit, participants were asked whether they could identify prodromal symptoms followed by migraine headache within 1 to 6 hours at least 75% of the time. […] After the screening period, to be eligible for randomization, the participant needed to record 3 to 16 qualifying prodrome events with at least 75% of these events followed by a headache, of any intensity, within 1 to 6 hours.
Participants were excluded if they had difficulty distinguishing migraine from tension-type or other headache types, or if they had chronic migraine, a trigeminal autonomic cephalalgia, or a painful cranial neuropathy. Participants who overused medication for migraine or had previous exposure to an injectable anti-CGRP monoclonal antibody within the previous 3 months were also excluded.
Participant flow is illustrated in FIG. 2. […]

[3] = 100 mg in prodrome, within 1 hour, mITT, observed cases
[4] = 100 mg in prodrome, within 2 hours, mITT, observed cases
[5] = 100 mg in prodrome, within 3 hours, mITT, observed cases
[6] = 100 mg in prodrome, within 4 hours, mITT, observed cases
[7] = 100 mg in prodrome, within 6 hours, mITT, observed cases
[8] = 100 mg in prodrome, within 8 hours, mITT, observed cases
[9] = 100 mg in prodrome, within 24 hours, mITT, observed cases
[10] = 100 mg in prodrome, within 24 hours, mITT, observed cases (primary analysis)
[11] = 100 mg in prodrome, within 24 hours, sensitivity analysis: Period 1 data only
[12] = 100 mg in prodrome, within 24 hours, sensitivity analysis: non-responder imputation
[13] = 100 mg in prodrome, within 24 hours, sensitivity analysis: testing carryover effect
[14] = 100 mg in prodrome, within 48 hours, mITT, observed cases

C[C@@H]1[C@H](c2ccccc2)C[C@H](NC(=O)c2cnc3c(c2)C[C@@]2(C3)C(=O)Nc3ncccc32)C(=O)N1CC(F)(F)F [Ubrogepant, (3′S)—N-((3S,5S,6R)-6-methyl-2-oxo-5-phenyl-1-(2,2,2-trifluoroethyl)piperidin-3-yl)-2′-oxo-1′,2′,5,7-tetrahydrospiro[cyclopenta[b]pyridine-6,3′-pyrrolo[2,3-b]pyridine]-3-carboxamide]
Activity limitation, Odds ratio vs placebo [1]: 2.07
Activity limitation, Responders (%) (not at all limited or a little limited) [1]: (65.4) %
Activity limitation, Responders (%) (not at all limited or a little limited) ([1]; listed as ubrogepant): 65.4%
Absence of a headache of any intensity, Nonresponder (%) [2, 3]: (42.9) %
Absence of a headache of any intensity, Odds Ratio vs. Placebo [2, 3]: 1.19
Absence of a headache of any intensity, Responder (%) [2, 3]: (57.1) %
Absence of a headache of moderate/severe intensity, Nonresponder (%) [2, 3]: (22.9) %
Absence of a headache of moderate/severe intensity, Odds Ratio vs. Placebo [2, 3]: 1.30
Absence of a headache of moderate/severe intensity, Responder (%) [2, 3]: (77.1) %
Absence of a headache of severe intensity, Nonresponder (%) [2, 3]: (4.0) %
Absence of a headache of severe intensity, Odds Ratio vs. Placebo [2, 3]: 1.21
Absence of a headache of severe intensity, Responder (%) [2, 3]: (96.0) %
Absence of a headache of any intensity, Nonresponder (%) [2, 4]: (55.7) %
Absence of a headache of any intensity, Odds Ratio vs. Placebo [2, 4]: 1.34
Absence of a headache of any intensity, Responder (%) [2, 4]: (44.3) %
Absence of a headache of moderate/severe intensity, Nonresponder (%) [2, 4]: (35.4) %
Absence of a headache of moderate/severe intensity, Odds Ratio vs. Placebo [2, 4]: 1.31
Absence of a headache of moderate/severe intensity, Responder (%) [2, 4]: (64.6) %
Absence of a headache of severe intensity, Nonresponder (%) [2, 4]: (7.4) %
Absence of a headache of severe intensity, Odds Ratio vs. Placebo [2, 4]: 1.33
Absence of a headache of severe intensity, Responder (%) [2, 4]: (92.6) %
Absence of a headache of any intensity, Nonresponder (%) [2, 5]: (62.5) %
Absence of a headache of any intensity, Odds Ratio vs. Placebo [2, 5]: 1.60
Absence of a headache of any intensity, Responder (%) [2, 5]: (37.5) %
Absence of a headache of moderate/severe intensity, Nonresponder (%) [2, 5]: (39.9) %
Absence of a headache of moderate/severe intensity, Odds Ratio vs. Placebo [2, 5]: 1.71
Absence of a headache of moderate/severe intensity, Responder (%) [2, 5]: (60.1) %
Absence of a headache of severe intensity, Nonresponder (%) [2, 5]: (9.4) %
Absence of a headache of severe intensity, Odds Ratio vs. Placebo [2, 5]: 1.41
Absence of a headache of severe intensity, Responder (%) [2, 5]: (90.6) %
Absence of a headache of any intensity, Nonresponder (%) [2, 6]: (67.3) %
Absence of a headache of any intensity, Odds Ratio (95% CI) vs. Placebo [2, 6]: 1.76 (1.35, 2.30)
Absence of a headache of any intensity, Responder (%) [2, 6]: (32.7) %
Absence of a headache of moderate/severe intensity, Nonresponder (%) [2, 6]: (41.5) %
Absence of a headache of moderate/severe intensity, Odds Ratio vs. Placebo [2, 6]: 1.91
Absence of a headache of moderate/severe intensity, Responder (%) [2, 6]: (58.5) %
Absence of a headache of severe intensity, Nonresponder (%) [2, 6]: (10.5) %
Absence of a headache of severe intensity, Odds Ratio vs. Placebo [2, 6]: 1.70
Absence of a headache of severe intensity, Responder (%) [2, 6]: (89.5) %
Absence of a headache of any intensity, Nonresponder (%) [2, 7]: (71.0) %
Absence of a headache of any intensity, Odds Ratio vs. Placebo [2, 7]: 1.79
Absence of a headache of any intensity, Responder (%) [2, 7]: (29.0) %
Absence of a headache of moderate/severe intensity, Nonresponder (%) [2, 7]: (46.6) %
Absence of a headache of moderate/severe intensity, Odds Ratio vs. Placebo [2, 7]: 1.86
Absence of a headache of moderate/severe intensity, Responder (%) [2, 7]: (53.4) %
Absence of a headache of severe intensity, Nonresponder (%) [2, 7]: (12.5) %
Absence of a headache of severe intensity, Odds Ratio vs. Placebo [2, 7]: 1.77
Absence of a headache of severe intensity, Responder (%) [2, 7]: (87.5) %
Absence of a headache of any intensity, Nonresponder (%) [2, 8]: (72.5) %
Absence of a headache of any intensity, Odds Ratio vs. Placebo [2, 8]: 1.85
Absence of a headache of any intensity, Responder (%) [2, 8]: (27.5) %
Absence of a headache of moderate/severe intensity, Nonresponder (%) [2, 8]: (48.2) %
Absence of a headache of moderate/severe intensity, Odds Ratio vs. Placebo [2, 8]: 2.01
Absence of a headache of moderate/severe intensity, Responder (%) [2, 8]: (51.8) %
Absence of a headache of severe intensity, Nonresponder (%) [2, 8]: (13.1) %
Absence of a headache of severe intensity, Odds Ratio vs. Placebo [2, 8]: 1.89
Absence of a headache of severe intensity, Responder (%) [2, 8]: (86.9) %
Absence of a headache of any intensity, Nonresponder (%) [2, 9]: (76.3) %
Absence of a headache of any intensity, Odds Ratio vs. Placebo [2, 9]: 1.93
Absence of a headache of any intensity, Responder (%) [2, 9]: (23.7) %
Absence of a headache of severe intensity, Nonresponder (%) [2, 9]: (14.5) %
Absence of a headache of severe intensity, Odds Ratio vs. Placebo [2, 9]: 1.83
Absence of a headache of severe intensity, Responder (%) [2, 9]: (85.5) %
Absence of a headache of moderate/severe intensity, Nonresponder (%) [2, 10]: (54.5) %
Absence of a headache of moderate/severe intensity, Odds Ratio vs. Placebo [2, 10]: 2.09
Absence of a headache of moderate/severe intensity, Responder (%) [2, 10]: (45.5) %
Absence of a headache of moderate/severe intensity, Responder (%) ([2]; 100 mg in prodrome, within 24 hours, mITT, observed cases (primary analysis), listed as ubrogepant): 45.5%
Absence of a headache of any intensity, Responder (%) ([2]; 100 mg in prodrome, within 24 hours, mITT, observed cases, listed as ubrogepant): 23.7%
Absence of a headache of moderate/severe intensity, Nonresponder (%) [2, 11]: (52.6) %
Absence of a headache of moderate/severe intensity, Odds Ratio vs. Placebo [2, 11]: 2.11
Absence of a headache of moderate/severe intensity, Responder (%) [2, 11]: (47.4) %
Absence of a headache of moderate/severe intensity, Nonresponder (%) [2, 12]: (57.6) %
Absence of a headache of moderate/severe intensity, Odds Ratio vs. Placebo [2, 12]: 2.01
Absence of a headache of moderate/severe intensity, Responder (%) [2, 12]: (42.4) %
Absence of a headache of moderate/severe intensity, Nonresponder (%) [2, 13]: (54.5) %
Absence of a headache of moderate/severe intensity, Odds Ratio vs. Placebo [2, 13]: 2.09
Absence of a headache of moderate/severe intensity, Responder (%) [2, 13]: (45.5) %
Absence of a headache of any intensity, Nonresponder (%) [2, 14]: (81.4) %
Absence of a headache of any intensity, Odds Ratio vs. Placebo [2, 14]: 1.90
Absence of a headache of any intensity, Responder (%) [2, 14]: (18.6) %
Absence of a headache of moderate/severe intensity, Nonresponder (%) [2, 14]: (59.3) %
Absence of a headache of moderate/severe intensity, Odds Ratio vs. Placebo [2, 14]: 2.13
Absence of a headache of moderate/severe intensity, Responder (%) [2, 14]: (40.7) %
Absence of a headache of severe intensity, Nonresponder (%) [2, 14]: (17.4) %
Absence of a headache of severe intensity, Odds Ratio vs. Placebo [2, 14]: 1.71
Absence of a headache of severe intensity, Responder (%) [2, 14]: (82.6) %
Absence of a headache of moderate/severe intensity, Responder (%) ([2]; 100 mg in prodrome, within 48 hours, mITT, observed cases, listed as ubrogepant): 40.7%
Reducing the development of moderate/severe headache within 24 and 48 hours and of headache of any intensity within 24 hours ([2]; administered during the prodrome): superior to placebo
